Assay results published in patent US5994334A, “Androgen synthesis inhibitors” (priority 1997, dated 1999).

Tests used:
17α-hydroxylase = conditions: [3H]-progesterone substrate; read-out: IC50 17α-hydroxylase (Potter et al.); cited from earlier work
C17,20-lyase = conditions: [3H]-progesterone substrate; read-out: IC50 C17,20-lyase (Potter et al.); cited from earlier work
5α-reductase = conditions: cited from earlier work
[1] = test system: LNCaP human prostatic cancer cell line; assay: Androgen-dependent growth of LNCaP cells
Protocol: The ability of various inhibitors to reverse the stimulatory effect of testosterone on the growth of the LNCaP human prostatic cancer cell line was tested by comparing cell number in wells treated for 9 days with either drug vehicle only (control), 0.1 nM testosterone only, or 0.1 nM testosterone with inhibitor at 0.3, 1, 2.5, or 5 μM.

[2] = test system: 5α-reductase Type I and Type II isoforms; conditions: cited from earlier work
BPH patients = conditions: cited from earlier work; for serum testosterone levels (in words): human, in vivo
TRPM-2 gene = conditions: vs castration; cited from earlier work
[3] = molecular target: T1, Human Prostatic 5α-Reductase (Homo sapiens, UniProt P31213); assay: Inhibition of human prostatic 5α-reductase (prostatic microsomes, [3H]testosterone); conditions: for IC50: IC50 5α-reductase
T1 sequence (P31213 1-254): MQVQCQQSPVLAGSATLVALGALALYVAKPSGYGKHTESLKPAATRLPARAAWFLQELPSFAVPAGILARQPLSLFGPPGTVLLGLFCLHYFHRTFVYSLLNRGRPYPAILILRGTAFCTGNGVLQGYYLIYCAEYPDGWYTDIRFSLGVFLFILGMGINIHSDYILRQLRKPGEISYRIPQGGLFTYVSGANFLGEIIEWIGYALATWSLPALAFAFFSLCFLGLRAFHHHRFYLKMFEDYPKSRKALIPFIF
Protocol: The 5α-reductase assay is performed by incubating human prostatic microsomes (approx. 0.6 mg protein in 0.5 ml phosphate buffer) with [7-^3 H]testosterone (10 mM. 6×10^5 dpm) with a NADPH generating system (NADP 0.65 mM; glucose-6-phosphate 7.1 mM; glucose-6-phosphate dehydrogenase 2.5 IU in 100 μl phosphate buffer) and candidate inhibitors at concentrations of 10 nM and 100 nM under oxygen for 30 min at 37° C. […] The steroids are extracted with ether and separated by chromatography on TLC (chloroform:ether 80:20). […] The steroids are scraped from the plate and radioactivity measured.

dogs = conditions: vs finasteride; cited from earlier work
[4] = in vivo; cited from earlier work
mutant androgen receptor = conditions: cited from earlier work

## C[C@]12CC[C@H](O)CC1=CC[C@@H]1[C@@H]2CC[C@]2(C)C(c3cccnc3)=CC[C@@H]12 [CB7598, 17-(3'-pyridyl)androsta-5,16-diene-3-ol]
17α-hydroxylase
  IC50: 4 nM
C17,20-lyase
  IC50: 2.9 nM
5α-reductase
  inhibition of 5α-reductase, literature (in words): no activity

## CC(C)(C)NC(=O)[C@H]1CC[C@H]2[C@@H]3CC[C@H]4NC(=O)C=C[C@]4(C)[C@H]3CC[C@]12C [Finasteride, reference compound]
[1]; 0.03 nM DHT
  reversal of DHT-stimulated LNCaP growth (in words): dose-dependent reversal
[1]; 0.1 nM testosterone, inhibitor 5 μM
  reversal of testosterone-stimulated LNCaP growth at 5 μM (in words): almost completely reversed
[1]; 0.1 nM testosterone, inhibitor 0.3-5 μM, 9 days
  reversal of testosterone-stimulated LNCaP growth (in words): dose-dependent reversal
[1]; Homo sapiens, LNCaP, 216 h, read-out: concentration reducing the stimulatory effect of testosterone by 50%
  IC50: ≤ 1000 nM
[2]
  potency at 5α-reductase Type II vs Type I (in words): more potent inhibitor of the Type II than of the Type I isoform
BPH patients
  serum testosterone levels (in words): increase serum testosterone levels
BPH patients; long-term treatment
  gynecomastia in long-term treatment (in words): some patients developed gynecomastia which led to breast cancer in a few cases
BPH patients; patients
  reduction of serum DHT: 65-80%
TRPM-2 gene
  TRPM-2 expression (in words): not by finasteride treatment
[3]
  IC50: 14 nM
[3]; Table 2
  IC50: 14 nM
[3]; Table 3, NI = no inhibition
  IC50: 14.4 nM
[3]; read-out: % Inhibition of 5α-reductase, [I] 10 nM
  inhibition at 0.01 µM: 41.2%
[3]; read-out: % Inhibition of 5α-reductase, [I] 100 nM
  inhibition at 0.1 µM: 88.3%
[3]; read-out: % Inhibition of 5α-reductase, [I] 400 nM
  inhibition at 0.4 µM: 93%

## C[C@]12C=CC(=O)N[C@@H]1CC[C@@H]1[C@@H]2CC[C@]2(C)[C@@H](C(=O)c3ccccc3)CC[C@@H]12 [MK-434]
BPH patients
  serum testosterone levels (in words): increase serum testosterone levels
dogs
  reduction of prostatic DHT in dogs (in words): reduces prostatic DHT levels in dogs more effectively than finasteride

## CC(=O)[C@H]1CC[C@H]2[C@@H]3CCC4=CC(=O)CC[C@]4(C)[C@H]3CC[C@]12C [Progesterone]
5α-reductase
  inhibition of 5α-reductase, literature (in words): potent 5α-reductase inhibitor
[4]
  metabolism and oral activity (in words): rapid metabolism in the body and lack of oral activity

## CC(C)(O)C(=O)Nc1ccc([N+](=O)[O-])c(C(F)(F)F)c1 [hydroxyflutamide, reference compound]
[1]; 0.1 nM testosterone, hydroxyflutamide 0.3-1 μM
  stimulation of LNCaP cell proliferation (in words): stimulated cell proliferation
Mutant androgen receptor
  effect on mutant AR / prostatic cell growth (in words): agonist activity for the mutant androgen receptor of LNCaP cells
